{"source": "patent US20240351960A1", "about": "“METHOD FOR PRODUCING […] THIO[…], AND USE OF COMPOUND IN NITROGEN FERTILIZER FORMULATIONS” (NOVAEM BBTRADE, priority 2021, published 2024)", "key": {"[1]": {"system": "urease", "experiment": "Volatilization of urea from garden soil treated with urea containing PTA (Example 2)", "settings": "garden soil 1500 g, urea containing 0.1 wt % PTA (as third precipitate, at least 75% PTA), after four days, mass percent; control without PTA 15.4%", "experimental": "Three 1500 g samples of garden soil were prepared, placed in airtight containers. One sample was treated with urea containing no PTA, and two samples with urea containing 0.1 wt % PTA. The amount of urea was the same for each sample. The PTA was the “third precipitate” within the meaning of the object of the present invention. It contained at least 75% by weight of PTA; the indication “0.1% by mass of PTA” refers here to the total mass of the third precipitate and not to the pure PTA which it contains.\nEach soil sample was treated with 250 g of water before depositing the urea samples treated or not with PTA on the surface. The volatilization of urea was determined after four days, expressed in mass percent. For this, a current of air was conveyed above each sample using a membrane pump, and this air was led through a citric acid solution which fixes the ammonia by transforming it into ammonium. The citric acid solution was then titrated with a sodium hydroxide solution to calculate the amount of ammonia that had reacted with the citric acid solution. From the quantity of ammonia, the quantity of urea having generated it is calculated.\nIn this test, the earth was taken from a single location, and the containers were stored side by side in the same room. It can therefore be assumed that each batch was exposed to the same experimental conditions."}, "[2]": {"system": "urease", "experiment": "Rate of urea volatilization from agricultural earth treated with urea fertilizer containing PTA (Examples 4 and 5)", "settings": "after four days; for rate of urea volatilization: control 45.81%", "experimental": "Three identical samples of agricultural earth were supplied. A first sample of this earth was treated with a urea fertilizer containing 0.2% by weight of the third precipitate. This precipitate contained at least 75% by weight of PTA; the indication “0.2% by mass of PTA” refers here to the total mass of the third precipitate and not to the pure PTA which it contains. A second sample of this earth was treated with the same quantity of the same fertilizer comprising 0.2% by mass of TPTA (in the sense indicated above for PTA). The third earth sample was treated with the same amount of the same fertilizer containing no urease inhibitor. The rate of urea volatilization was determined after four days of exposure:\nFollowing the test described in Example 4, the dose effect of the PTA was determined by treating identical agricultural earth samples with a urea fertilizer comprising 0.05%, 0.1% and 0.2% by mass of PTA (in the sense indicated above: quantity of third precipitate)."}}, "note": "Where “and” joins values, the source holds several entries; their conditions need not be identical. Identical values can stand only once."}
{"smiles": "NP(N)(N)=O", "note": "[PTA, phosphoryl triamide]", "values": [{"measurement": "volatilization of urea", "setting": "[1]", "result": "1.5% and 3.05%"}, {"measurement": "volatilization of urea is reduced by", "setting": "[2]; 0.2% by mass of PTA, versus control", "result": "approximately 75%"}, {"measurement": "rate of urea volatilization", "setting": "[2]; urea fertilizer with 0.05% by mass of PTA (quantity of third precipitate)", "result": 34.19, "unit": "%"}, {"measurement": "rate of urea volatilization", "setting": "[2]; urea fertilizer with 0.1% by mass of PTA (quantity of third precipitate)", "result": 29.56, "unit": "%"}, {"measurement": "rate of urea volatilization", "setting": "[2]; urea fertilizer, printed as 0.02% PTA (quantity of third precipitate)", "result": 11.55, "unit": "%"}]}
